Measurements reported in ChEMBL document CHEMBL1201862, “PubChem BioAssay data set” (2004).
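Dose response: 5 concentrations. Exposure: 48 h. Format: 96-well plates. Endpoint: linear interpolation; highest concentration if not reached. GI50 marks 50% less growth.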 Activity calls are given as the source filed them. No stated cut-off is given here; in the data, active = GI50 up to about 1.1 µM and inactive = higher.

Tests used:
Assay in all cases: growth of human tumour cells (NCI), 48 h
UACC-62 = system: UACC-62
RXF 393 = system: RXF 393
U-251 = system: U-251
HCC 2998 = system: HCC 2998
NCI-H522 = system: NCI-H522
IGROV-1 = system: IGROV-1
NCI-H460 = system: NCI-H460
SK-MEL-2 = system: SK-MEL-2
PC-3 = system: PC-3
HOP-62 = system: HOP-62
HOP-92 = system: HOP-92
T47D = system: T47D
ACHN = system: ACHN
SNB-19 = system: SNB-19
OVCAR-4 = system: OVCAR-4
MCF7 = system: MCF7
TK-10 = system: TK-10
SW-620 = system: SW-620
Malme-3M = system: Malme-3M
CCRF-CEM = system: CCRF-CEM

Compound | GI50 (UACC-62) | GI50 (RXF 393) | GI50 (U-251) | GI50 (HCC 2998) | GI50 (NCI-H522) | GI50 (IGROV-1) | GI50 (NCI-H460) | GI50 (SK-MEL-2) | GI50 (PC-3) | GI50 (HOP-62) | GI50 (HOP-92) | GI50 (T47D) | GI50 (ACHN) | GI50 (SNB-19) | GI50 (OVCAR-4) | GI50 (MCF7) | GI50 (TK-10) | GI50 (SW-620) | GI50 (Malme-3M) | GI50 (CCRF-CEM)
Nc1nc(O)c2ncn(C3C=CC(CO)C3)c2n1 (stereo not drawn) | > 100 µM (inactive) | > 100 µM (inactive) | > 100 µM (inactive) | > 100 µM (inactive) | > 100 µM (inactive) | > 100 µM (inactive) | > 100 µM (inactive) | > 100 µM (inactive) | > 100 µM (inactive) | > 100 µM (inactive) | > 100 µM (inactive) | > 100 µM (inactive) | > 100 µM (inactive) | > 100 µM (inactive) | > 100 µM (inactive) | > 100 µM (inactive) | > 100 µM (inactive) | > 100 µM (inactive) | > 100 µM (inactive) | 
Cc1c(-c2ccccc2)cc(O)c2nc3ccccc3n12 | 11 µM (inactive) | 83.6 µM (inactive) | 6.75 µM (inactive) | 17.8 µM (inactive) | 20.4 µM (inactive) | 39.5 µM (inactive) | 6.31 µM (inactive) |  | 31.7 µM (inactive) | 21.1 µM (inactive) | 10.2 µM (inactive) | > 100 µM (inactive) | 21.6 µM (inactive) | 96.8 µM (inactive) | 9.68 µM (inactive) | 57.9 µM (inactive) | > 100 µM (inactive) | 20.7 µM (inactive) | > 100 µM (inactive) | 17 µM (inactive)
Nc1ccc2c(c1)C1Oc3ccccc3CC1CO2 (stereo not drawn) | > 100 µM (inactive) |  | > 100 µM (inactive) | > 100 µM (inactive) | > 100 µM (inactive) | > 100 µM (inactive) |  | > 100 µM (inactive) | > 100 µM (inactive) | > 100 µM (inactive) | > 100 µM (inactive) | 76 µM (inactive) |  |  |  | > 100 µM (inactive) | > 100 µM (inactive) | > 100 µM (inactive) | > 100 µM (inactive) | > 100 µM (inactive)
Cc1nc2ccccc2[nH]/c1=N/Nc1ccccc1 | 16.3 µM (inactive) |  | 48.3 µM (inactive) | 38.9 µM (inactive) | 26.1 µM (inactive) | 3.73 µM (inactive) | 35.6 µM (inactive) | 30.4 µM (inactive) | 26.1 µM (inactive) | 23.3 µM (inactive) | 3.8 µM (inactive) | 2.11 µM (inactive) | 30.5 µM (inactive) | 45.1 µM (inactive) | 9.66 µM (inactive) | 12.3 µM (inactive) | > 100 µM (inactive) | 40.6 µM (inactive) | 20.3 µM (inactive) | 4.23 µM (inactive)
CCCNc1[nH]c(C(=O)c2ccccc2)c(N)c1C(=S)Nc1ccccc1 | > 100 µM (inactive) |  | > 100 µM (inactive) | > 100 µM (inactive) | > 100 µM (inactive) | > 100 µM (inactive) | > 100 µM (inactive) | > 100 µM (inactive) | > 100 µM (inactive) | > 100 µM (inactive) | > 100 µM (inactive) | > 100 µM (inactive) | > 100 µM (inactive) | > 100 µM (inactive) | > 100 µM (inactive) | > 100 µM (inactive) | > 100 µM (inactive) | > 100 µM (inactive) | > 100 µM (inactive) | > 100 µM (inactive)
O=c1[nH]nc(-c2ccccc2)n1-c1ccncc1 |  | > 100 µM (inactive) | > 100 µM (inactive) | > 100 µM (inactive) | > 100 µM (inactive) | > 100 µM (inactive) | > 100 µM (inactive) |  | > 100 µM (inactive) | > 100 µM (inactive) | > 100 µM (inactive) | > 100 µM (inactive) | > 100 µM (inactive) | > 100 µM (inactive) | > 100 µM (inactive) | > 100 µM (inactive) | > 100 µM (inactive) | > 100 µM (inactive) | > 100 µM (inactive) | > 100 µM (inactive)
CCC(c1ccc(OC)cc1)C1NC(=S)NC1=O (stereo not drawn) |  | > 50 µM (inactive) | > 50 µM (inactive) | > 50 µM (inactive) | > 50 µM (inactive) | > 50 µM (inactive) | > 50 µM (inactive) | > 50 µM (inactive) | > 50 µM (inactive) | > 50 µM (inactive) | > 50 µM (inactive) | > 50 µM (inactive) | > 50 µM (inactive) | > 50 µM (inactive) | > 50 µM (inactive) | > 50 µM (inactive) | > 50 µM (inactive) | > 50 µM (inactive) | > 50 µM (inactive) | > 50 µM (inactive)
Clc1ccc(-c2c3nc(c(-c4ccc(Cl)cc4)c4ccc([nH]4)c(-c4ccc(Cl)cc4)c4nc(c(-c5ccc(Cl)cc5)c5ccc2[nH]5)C=C4)C=C3)cc1 | > 100 µM (inactive) |  | > 100 µM (inactive) | > 100 µM (inactive) | > 100 µM (inactive) | > 100 µM (inactive) | > 100 µM (inactive) | > 100 µM (inactive) | > 100 µM (inactive) | > 100 µM (inactive) | > 100 µM (inactive) | > 100 µM (inactive) | > 100 µM (inactive) | > 100 µM (inactive) | > 100 µM (inactive) | > 100 µM (inactive) | > 100 µM (inactive) | > 100 µM (inactive) | 70.8 µM (inactive) | > 100 µM (inactive)
CCOC(=O)CNC(=O)C(CSC(=O)N(O)c1ccc(Br)cc1)NC(=O)CCC(N)C(=O)OCC (stereo not drawn) | > 50 µM (inactive) | > 50 µM (inactive) | > 50 µM (inactive) | > 50 µM (inactive) | > 50 µM (inactive) | > 50 µM (inactive) | > 50 µM (inactive) | > 50 µM (inactive) | > 50 µM (inactive) | > 50 µM (inactive) | 8.45 µM (inactive) | > 50 µM (inactive) | > 50 µM (inactive) | > 50 µM (inactive) | > 50 µM (inactive) | > 50 µM (inactive) |  | 45.1 µM (inactive) | > 50 µM (inactive) | 27.4 µM (inactive)
Cc1oc2c(c1C)S(=O)(=O)C(C#N)=C(N(C)C)N2 | > 100 µM (inactive) |  | > 100 µM (inactive) | > 100 µM (inactive) | > 100 µM (inactive) | > 100 µM (inactive) | > 100 µM (inactive) | > 100 µM (inactive) | > 100 µM (inactive) | > 100 µM (inactive) | > 100 µM (inactive) | > 100 µM (inactive) | > 100 µM (inactive) | > 100 µM (inactive) | > 100 µM (inactive) | > 100 µM (inactive) | > 100 µM (inactive) | > 100 µM (inactive) | > 100 µM (inactive) | 
O=C1C(Cl)=C(N2C(=O)CCC2=O)C(=O)c2ccccc21 | 34 µM (inactive) | 18.5 µM (inactive) | 23.9 µM (inactive) | 22.5 µM (inactive) | 17.8 µM (inactive) | 44.4 µM (inactive) | 53.6 µM (inactive) | 39.8 µM (inactive) | 53.2 µM (inactive) | > 100 µM (inactive) | 7.83 µM (inactive) | 32.4 µM (inactive) | 15.7 µM (inactive) | 52.6 µM (inactive) |  | 17.2 µM (inactive) | 39.8 µM (inactive) | 23.1 µM (inactive) |  | 2.62 µM (inactive)
COc1ccc(C(OC(C)=O)C2C(=C(C#N)C#N)c3ccccc3C2=C(C#N)C#N)cc1 (stereo not drawn) |  | 67.9 µM (inactive) | 41.9 µM (inactive) | 22.6 µM (inactive) | 38.2 µM (inactive) | 65.6 µM (inactive) | 28.1 µM (inactive) | 27.7 µM (inactive) | 21.8 µM (inactive) | 20.8 µM (inactive) | 45.1 µM (inactive) | 70 µM (inactive) | 36.4 µM (inactive) |  | 32.4 µM (inactive) | 48.3 µM (inactive) | 83.9 µM (inactive) | 36.8 µM (inactive) |  | 21.8 µM (inactive)
Cc1ccc(C)c(COCCOCn2ccc(N)nc2=O)c1 | > 100 µM (inactive) | > 100 µM (inactive) | > 100 µM (inactive) | > 100 µM (inactive) | > 100 µM (inactive) | > 100 µM (inactive) | > 100 µM (inactive) | > 100 µM (inactive) | > 100 µM (inactive) | > 100 µM (inactive) | > 100 µM (inactive) | > 100 µM (inactive) | > 100 µM (inactive) | > 100 µM (inactive) |  | > 100 µM (inactive) | > 100 µM (inactive) | > 100 µM (inactive) | > 100 µM (inactive) | 0.785 µM (active)
C[C@@H](NC(=O)OC1C=CC2(CC1)C(=O)N(C)c1ccccc12)c1cccc2ccccc12 (stereo partly drawn) | > 25 µM (inactive) |  | > 25 µM (inactive) | > 25 µM (inactive) | 5.24 µM (inactive) | 4.86 µM (inactive) | 18.2 µM (inactive) | > 25 µM (inactive) | > 25 µM (inactive) | > 25 µM (inactive) | > 25 µM (inactive) | 7.26 µM (inactive) | > 25 µM (inactive) | > 25 µM (inactive) | 16.3 µM (inactive) | 7.59 µM (inactive) | > 25 µM (inactive) | > 25 µM (inactive) |  | 14.7 µM (inactive)
O=C1C(Br)=CC2(C=C1Br)CCNC1=C2C(=O)c2[nH]cnc2C1=O | 11.9 µM (inactive) | 16.3 µM (inactive) | 15 µM (inactive) | 25.8 µM (inactive) | 14.4 µM (inactive) |  | 16.7 µM (inactive) | 9.12 µM (inactive) | 25.7 µM (inactive) | 17.2 µM (inactive) | 12.3 µM (inactive) | 15.6 µM (inactive) | 14.6 µM (inactive) |  | 14.5 µM (inactive) | 14.6 µM (inactive) | 29.2 µM (inactive) | 17.7 µM (inactive) |  | 15 µM (inactive)
